Assay results: patent US20250275538A1, “COMPOSITIONS CONTAINING L-CARNITINE AND SEAWEED EXTRACT FOR MITIGATING ABIOTIC STRESS IN PLANTS” (ACADIAN SEAPLANTS LIMITED, priority 2022, published 2025)

What was measured:
Assay type in all cases: in vivo
[1] = test system: winter wheat (cv. Marius); assay: Wheat drought stress greenhouse trial (seed treatment); conditions: ANE alone 1 ml/kg, CAR alone 0.3 g/kg; for plant vigour, Mean: 0-10 scale
Description: Winter wheat seed (cv. Marius) was treated at a total application volume of 10 ml/kg with water (unstressed control and stressed control treatment groups), or an aqueous solution of Ascophyllum nodosum extract (ANE) at 1 ml/kg, or an aqueous solution of L-carnitine hydrochloride (CAR) at 0.3 g/kg, or combinations of Ascophyllum nodosum extract at 1 ml/kg with either 0.1, 0.2, 0.3, or 0.4 g/kg L-carnitine hydrochloride. Treated wheat seed was sown in soil in pots with 10 biological replicates per treatment group in a randomized complete block design. Four days after full emergence, drought stress was imposed on all but the unstressed control treatment group through a 50% reduced irrigation regime relative to the full irrigation received by the unstressed control group.

[2] = test system: winter wheat (cv. Marius); assay: Wheat salinity stress greenhouse trial (seed treatment); conditions: ANE alone 1 ml/kg, CAR alone 0.3 g/kg
Description: Winter wheat seed (cv. Marius) was treated at a total application volume of 10 ml/kg with water (unstressed control and stressed control treatment groups), or an aqueous solution of Ascophyllum nodosum extract (ANE) at 1 ml/kg, or an aqueous solution of L-carnitine hydrochloride (CAR) at 0.3 g/kg, or combinations of Ascophyllum nodosum extract at 1 ml/kg with either 0.1, 0.2, 0.3, or 0.4 g/kg L-carnitine hydrochloride. Treated wheat seed was sown in pots containing soil with 10 biological replicates per treatment group in a randomized complete block design. Four days after full emergence, salinity stress was imposed on all but the unstressed control treatment group through irrigation with saline water (8 g/l NaCl) for the remainder of the trial. The unstressed control treatment group was irrigated with non-saline water.

soybean (cv. Mungo) = assay: Soybean drought stress greenhouse trial (seed treatment); conditions: 51 days after sowing, ANE alone 1 ml/kg, CAR alone 0.3 g/kg
Description: Soybean seed (cv. Mungo) was treated at a total application volume of 10 ml/kg with water (unstressed control and stressed control treatment groups), or an aqueous solution of Ascophyllum nodosum extract (ANE) at 1 ml/kg, or an aqueous solution of L-carnitine hydrochloride (CAR) at 0.3 g/kg, or combinations of Ascophyllum nodosum extract at 1 ml/kg with either 0.1, 0.2, 0.3, or 0.4 g/kg L-carnitine hydrochloride. Treated soybean seed was sown in pots containing soil with 10 biological replicates per treatment group in a randomized complete block design. Four days after full emergence, drought stress was imposed on all but the unstressed control treatment group through a 50% reduced irrigation regime relative to the full irrigation received by the unstressed control group.

corn (cv. H140354) = assay: Corn drought stress controlled environment room trial (seed treatment); conditions: 10 days after sowing
Description: Corn seed (cv. H140354) was treated at a total application volume of 10 ml/kg with water (unstressed control and stressed control treatment groups), or an aqueous solution of Ascophyllum nodosum extract (ANE) at 2 ml/kg, or an aqueous solution of L-carnitine hydrochloride (CAR) at 0.3 g/kg, or a combinations of Ascophyllum nodosum extract at 2 ml/kg and 0.3 g/kg L-carnitine hydrochloride. Treated corn seed was sown in field soil inside cell packs set in greenhouse trays with 16 biological replicates per treatment group in a randomized complete block design. Three days after seeding, drought stress was imposed on all but the unstressed control treatment group through a 75% reduced irrigation regime relative to the full irrigation received by the unstressed control group, and assessments were made ten days after seeding.

[3] = test system: wheat (cultivar Skyfall, ref. SEED-0035); assay: Wheat subject to cold stress (seed treatment), NPQt and synergy assessment; conditions: 10 days after sowing, ANE alone 0.36 g
Description: Seed Treatment solutions were prepared per Table 20:
0.1 mL of treatment solution was pipetted into a 500-mL glass beaker around the edges and 10 g of wheat seed (cultivar Skyfall, ref. SEED-0035) was added. The beaker was swirled by hand for 1 min to coat the seeds, which were then swirled intermittently until dry, if needed.
The trial was set up according to the following protocol: • 1. 32 8-0-6 cell packs were labelled with coloured stickers to denote five treatments with 4 cell packs for non-stress controls and 7 for the remaining 4 treatments. • 2. In a container 6 L of stored field soil and 600 mL water were mixed thoroughly. • 3. If soil was too dry, an additional 300 mL water, or an amount as appropriate, was added. • 4. […]
An estimate of non-photochemical quenching (NPQt), which is the amount of incoming light that is regulated away from photosynthetic processes in order to reduce damage to the plant was obtained using the MultispeQ (B-4003-AA) from PhotosynQ, according to manufaturer's directions. For the photosynthesis measuments a total of 12-14 plants per treatment were measured. […]
To supplement the observed evidence of efficacy, a synergy assessment was made. Synergy was calculated using two different methodologies, both of which find support in the literature: 1) Equation Ill from Colby, S. R. 1967. […]

[4] = test system: Marula soybean (reference SEED-003); assay: Soybean subject to salinity stress (seed treatment), NPQt, shoot weight and synergy assessment; conditions: 17 days after sowing, ANE alone 0.36 g
Description: To supplement the observed evidence of efficacy, a synergy assessment was made. Synergy was calculated using two different methodologies, both of which find support in the literature: 1) Equation Ill from Colby, S. R. 1967. Calculating synergistic and antagonistic responses of herbicide combinations. Weed Science 15:20-22. and 2) Equation 2 from Huang, Z., and K. A. Falco. 2021. Synergy assessment for plant growth by independent joint action theory. HortScience 56(5):623-626. doi: 10.21273/HORTSC115731-21. A one-sample, two-tailed t-test was used to assess the statistical significance of the difference between the observed and predicted means. The same Seed Treatments solutions (Table 20) and trial protocol were used as in Example 6, but seeds were planted at 1.5″. To coat seeds, 0.3 mL of treatment solution was pipetted into a 500-mL glass beaker around the edges and 30 g of soybean seed was added. Marula soybean seed (reference SEED-003) from Prograin was used, without any other treatment. An estimate of NPQt was obtained using the MultispeQ™ (B-4003-AA) from PhotosynQ, according to manufaturer's directions. For the photosynthesis measuments a total of 12-14 plants per treatment were measured. For Example 7, parametric analysis of variance (ANOVA) was done using the aov function in the ggpubr package, and multiple comparison testing was done with the Tukey test (alpha=0.1) using the TukeyHSD function in the stats package in R. Shoot weight was evaluated to assess whether the positive effects observed in NPQt was reflected in more robust plant grown. Seven cell packs per treatment were measured for shoot weight.

[5] = 50 days after sowing, drought stress (50% reduced irrigation)
[6] = compared to stressed control, 50 days after sowing, drought stress
[7] = drought stress (50% reduced irrigation)
[8] = compared to stressed control, drought stress
[9] = drought stress (75% reduced irrigation), ANE alone 2 ml/kg, CAR alone 0.3 g/kg
[10] = compared to stressed control, drought stress, ANE alone 2 ml/kg, CAR alone 0.3 g/kg
[11] = compared to stressed control, Carnitine alone 0.30 g

SMILES: C[N+](C)(C)C[C@H](O)CC(=O)[O-].Cl [CAR, L-carnitine hydrochloride]
- plant vigour, Mean ([1]; 21 days after sowing, drought stress (50% reduced irrigation), combinations as labelled): 7.60
- plant vigour, Mean ([1]; 42 days after sowing, drought stress (50% reduced irrigation)): 8.35
- foliar fresh weight, Mean [1, 5]: 9.94
- root fresh weight, Mean [1, 5]: 3.66
- plant vigour, Difference (%) ([1]; compared to stressed control, 21 days after sowing, drought stress): 7.0%
- plant vigour, Difference (%) ([1]; compared to stressed control, 42 days after sowing, drought stress): 11.3%
- foliar fresh weight, Difference (%) [1, 6]: 9.9%
- root fresh weight, Difference (%) [1, 6]: 67.5%
- plant height, Mean ([2]; 22 days after sowing, salinity stress (irrigation with 8 g/l NaCl)): 27.55
- relative chlorophyll content (SPAD), Mean ([2]; 29 days after sowing, salinity stress (8 g/l NaCl)): 35.30
- plant height, Mean ([2]; 35 days after sowing, salinity stress (8 g/l NaCl)): 37.39
- plant vigour, Mean ([2]; 43 days after sowing, salinity stress (8 g/l NaCl)): 8.68
- fresh foliar biomass, Mean ([2]; 50 days after sowing, salinity stress (8 g/l NaCl)): 10.6
- plant height, Difference (%) ([2]; compared to stressed control, 22 days after sowing, salinity stress): 6.8%
- relative chlorophyll content (SPAD), Difference (%) ([2]; compared to stressed control, 29 days after sowing, salinity stress): 17.1%
- plant height, Difference (%) ([2]; compared to stressed control, 35 days after sowing, salinity stress): 17.2%
- plant vigour, Difference (%) ([2]; compared to stressed control, 43 days after sowing, salinity stress): 9.9%
- fresh foliar biomass, Difference (%) ([2]; compared to stressed control, 50 days after sowing, salinity stress): 29.3%
- foliar dry weight, Mean (soybean (cv. Mungo); [7]): 12.64
- foliar fresh weight, Mean (soybean (cv. Mungo); [7]): 49.1
- plant vigour, Mean (soybean (cv. Mungo); [7]): 9.4
- foliar dry weight, Difference (%) (soybean (cv. Mungo); [8]): 55.9%
- foliar fresh weight, Difference (%) (soybean (cv. Mungo); [8]): 24.9%
- plant vigour, Difference (%) (soybean (cv. Mungo); [8]): 23.7%
- linear electron flow (LEF), Mean (corn (cv. H140354); [9]): 10.14
- photosynthetic efficiency (photosystem II efficiency, Phi2), Mean (corn (cv. H140354); [9]): 0.32
- root length, Mean (corn (cv. H140354); [9]): 263.3
- linear electron flow (LEF), Difference (%) (corn (cv. H140354); [10]): −4.3%
- non-photochemical quenching (NPQt), Difference (%) (corn (cv. H140354); [10]): −10.0%
- photosynthetic efficiency (Phi2), Difference (%) (corn (cv. H140354); [10]): 5.7%
- root length, Difference (%) (corn (cv. H140354); [10]): 16.4%
- non-photochemical quenching (NPQt), Mean (corn (cv. H140354); indicator of plant stress level, drought stress (75% reduced irrigation), ANE alone 2 ml/kg, CAR alone 0.3 g/kg): 2.32
- decrease in LEF (corn (cv. H140354); stated as decrease vs stressed control, CAR at 0.3 g/kg, drought stress): 4.3%
- non-photochemical quenching (NPQt), Mean ([3]; cold stress 13/8° C. day/night for 4 days, Carnitine alone 0.30 g (Table 20 solutions)): 0.40
- non-photochemical quenching (NPQt), Difference (%) ([3]; compared to stressed control, cold stress, Carnitine alone 0.30 g): −4.8%
- shoot weight (Shoot Fresh Weight), Mean ([4]; Carnitine alone 0.30 g): 1.69
- non-photochemical quenching (NPQt), Mean ([4]; Carnitine alone 0.30 g (Table 20 solutions)): 0.76
- non-photochemical quenching (NPQt), Difference (%) [4, 11]: −12.4%
- shoot weight, Difference (%) [4, 11]: 3.0%
